Data as given in patent US9139523B2, “5-HT2B receptor antagonists” (Janssen Pharmaceutica, NV, priority 2010, dated 2015).

Tests used:
[1] = Pharmacokinetic evaluation in the mouse; format: in vivo; settings: male CD1 mouse
Protocol: For intravenous (i.v.) administration, Compound (−)-17 was dissolved in saline containing 20% (w/v) hydroxy-propyl-beta-cyclodextrin (HPbCD) at a concentration of 0.25 mg/mL and administered (10 mL/kg) to male CD1 mice (n=3) as a bolus via a tail vein at a dose level of 2.5 mg/kg. For oral (p.o.) administration, Compound (−)-17 was dissolved in water containing 20% (w/v) HPbCD at a concentration of 0.5 mg/mL and administered (20 mL/kg) to male CD1 mice (n=3) via gavage at a dose level of 10 mg/kg. Blood samples were collected via a saphenous vein at serial time points up to 24 h after dosing. Plasma was obtained by centrifugation and stored at −20° C. prior to analysis. Analysis was performed using liquid chromatography (LC) with tandem mass spectrometric detection (MS/MS) in positive ion mode. Compound (−)-17 was eluted from a reversed phase column with a gradient of acetonitrile and water containing 0.1% (v/v) formic acid. At the time of analysis plasma samples (20 uL) were thawed and […] with 200 uL of acetonitrile and centrifuged. Aliquots of the supernatant were injected onto a reversed phase UPLC column and analysed via electrospray Mass Spectrometry. Calibration standards and quality controls, analysed before and after the study samples, were prepared in mouse plasma at the same time as […]. The accuracy (intra branch accuracy from independent QC samples) was between 85% and 115% of the nominal value over the entire concentration range. Non-compartmental pharmacokinetic analysis of the plasma concentration-time curves was performed using WinNonLin to provide estimates of the plasma clearance (CLp), volume of distribution at steady-state (Vss), terminal phase elimination half-life ([…]) and oral bioavailability (F), the results are summarised in Table 8.

[2] = test system: anesthetized dogs (Beagles); assay: Cardio-hemodynamic, cardio-electrophysiological, EEG and pulmonary effects in ventilated, anesthetized dogs; format: in vivo, dog; settings: for Median plasma level: 5-min i.v. infusion
Protocol: The animals were anesthetized with a mixture of 0.015 mg/kg i.v. scopolamine and 0.075 mg/kg i.v. lofentanil, and relaxed with succinylcholine (5 mg/kg i.v.) followed by a continuous i.v. infusion of 1.5 mg/kg/h of etomidate and small additional doses of fentanyl (0.025 mg/kg i.v.) were given at 60 min intervals. The animals were ventilated and prepared for measurements of the surface ECG, aortic-, pulmonary- and left ventricular blood pressure, carotid blood flow, monophasic action potential, body temperature, blood gasses and EEG (see Van Deuren et al, J Pharmacol Toxicol Methods; 2009; 60: 11-23). Compound (−)-17 was dissolved in 20% hydroxypropyl-cyclodextrin with NaOH, HCl and mannitol in pyrogen-free water and administered intravenously (1 ml/kg) in increasing doses (0.16, 0.32, 0.63, 1.25, 2.5 and 5 mg/kg) over a period of 5 min at 30-min intervals. Plasma concentrations of Compound (−)-17 were measured before and at the end of each infusion. Corresponding volumes of vehicle were administered according to the same protocol in a second group of animals.

COc1cc(N)c(Cl)cc1C(=O)NC1CCN(CCCOc2ccc(F)cc2)CC1(F)F (single isomer, unassigned) [Compound (−)-17, 4-amino-5-chloro-N-{3,3-difluoro-1-[3-(4-fluorophenoxy)-propyl]-piperidin-4-yl}-2-methoxybenzamide]
F ([1]; p.o. 10 mg/kg vs i.v. 2.5 mg/kg): 52%
half-life ([1]; plasma, intravenous, 2.5 mg/kg, read-out: t½ (converted)): 84 ± 12 min
clearance ([1]; plasma, iv, i.v. 2.5 mg/kg): 20 ± 6 mL/min/kg
Vd ([1]; plasma, iv, i.v. 2.5 mg/kg, read-out: Vss): 1.9 ± 0.6 L/kg
AUC(0-t) ([1]; plasma, po, p.o. 10 mg/kg): 4440 ± 1090 ng·h/mL
Cmax ([1]; plasma, po, p.o. 10 mg/kg): 1580 ± 165 ng/mL
Tmax ([1]; plasma, po, p.o. 10 mg/kg): 30 min
DPP, percentage change relative to vehicle ([2]; dog i.v. 0.16 mg/kg @ 5′): +3%
HR, percentage change relative to vehicle ([2]; dog i.v. 0.16 mg/kg @ 5′): −4%
LVdp/dtmax, percentage change relative to vehicle ([2]; dog i.v. 0.16 mg/kg @ 5′): −1%
MBP, percentage change relative to vehicle ([2]; dog i.v. 0.16 mg/kg @ 5′): +2%
PQ, percentage change relative to vehicle ([2]; dog i.v. 0.16 mg/kg @ 5′): −1%
QRS, percentage change relative to vehicle ([2]; dog i.v. 0.16 mg/kg @ 5′): +1%
QTcV, percentage change relative to vehicle ([2]; dog i.v. 0.16 mg/kg @ 5′): +2%
SPP, percentage change relative to vehicle ([2]; dog i.v. 0.16 mg/kg @ 5′): +2%
DPP, percentage change relative to vehicle ([2]; dog i.v. 0.16 mg/kg @ 30′): −3%
HR, percentage change relative to vehicle ([2]; dog i.v. 0.16 mg/kg @ 30′): −5%
LVdp/dtmax, percentage change relative to vehicle ([2]; dog i.v. 0.16 mg/kg @ 30′): +0%
MBP, percentage change relative to vehicle ([2]; dog i.v. 0.16 mg/kg @ 30′): +3%
PQ, percentage change relative to vehicle ([2]; dog i.v. 0.16 mg/kg @ 30′): −0%
QRS, percentage change relative to vehicle ([2]; dog i.v. 0.16 mg/kg @ 30′): +2%
QTcV, percentage change relative to vehicle ([2]; dog i.v. 0.16 mg/kg @ 30′): +4%
SPP, percentage change relative to vehicle ([2]; dog i.v. 0.16 mg/kg @ 30′): +5%
DPP, percentage change relative to vehicle ([2]; dog i.v. 0.32 mg/kg @ 5′): +0%
HR, percentage change relative to vehicle ([2]; dog i.v. 0.32 mg/kg @ 5′): −5%
LVdp/dtmax, percentage change relative to vehicle ([2]; dog i.v. 0.32 mg/kg @ 5′): +0%
MBP, percentage change relative to vehicle ([2]; dog i.v. 0.32 mg/kg @ 5′): +5%
PQ, percentage change relative to vehicle ([2]; dog i.v. 0.32 mg/kg @ 5′): −2%
QRS, percentage change relative to vehicle ([2]; dog i.v. 0.32 mg/kg @ 5′): +3%
QTcV, percentage change relative to vehicle ([2]; dog i.v. 0.32 mg/kg @ 5′): +2%
SPP, percentage change relative to vehicle ([2]; dog i.v. 0.32 mg/kg @ 5′): +11%
DPP, percentage change relative to vehicle ([2]; dog i.v. 0.32 mg/kg @ 30′): −8%
HR, percentage change relative to vehicle ([2]; dog i.v. 0.32 mg/kg @ 30′): +3%
LVdp/dtmax, percentage change relative to vehicle ([2]; dog i.v. 0.32 mg/kg @ 30′): −4%
MBP, percentage change relative to vehicle ([2]; dog i.v. 0.32 mg/kg @ 30′): +2%
PQ, percentage change relative to vehicle ([2]; dog i.v. 0.32 mg/kg @ 30′): −2%
QRS, percentage change relative to vehicle ([2]; dog i.v. 0.32 mg/kg @ 30′): +4%
QTcV, percentage change relative to vehicle ([2]; dog i.v. 0.32 mg/kg @ 30′): +1%
SPP, percentage change relative to vehicle ([2]; dog i.v. 0.32 mg/kg @ 30′): −3%
DPP, percentage change relative to vehicle ([2]; dog i.v. 0.63 mg/kg @ 5′): +0%
HR, percentage change relative to vehicle ([2]; dog i.v. 0.63 mg/kg @ 5′): −0%
LVdp/dtmax, percentage change relative to vehicle ([2]; dog i.v. 0.63 mg/kg @ 5′): −3%
MBP, percentage change relative to vehicle ([2]; dog i.v. 0.63 mg/kg @ 5′): +6%
PQ, percentage change relative to vehicle ([2]; dog i.v. 0.63 mg/kg @ 5′): +3%
QRS, percentage change relative to vehicle ([2]; dog i.v. 0.63 mg/kg @ 5′): +4%
QTcV, percentage change relative to vehicle ([2]; dog i.v. 0.63 mg/kg @ 5′): +1%
SPP, percentage change relative to vehicle ([2]; dog i.v. 0.63 mg/kg @ 5′): −2%
DPP, percentage change relative to vehicle ([2]; dog i.v. 0.63 mg/kg @ 30′): −9%
HR, percentage change relative to vehicle ([2]; dog i.v. 0.63 mg/kg @ 30′): +4%
LVdp/dtmax, percentage change relative to vehicle ([2]; dog i.v. 0.63 mg/kg @ 30′): −2%
MBP, percentage change relative to vehicle ([2]; dog i.v. 0.63 mg/kg @ 30′): +2%
PQ, percentage change relative to vehicle ([2]; dog i.v. 0.63 mg/kg @ 30′): −0%
QRS, percentage change relative to vehicle ([2]; dog i.v. 0.63 mg/kg @ 30′): +1%
QTcV, percentage change relative to vehicle ([2]; dog i.v. 0.63 mg/kg @ 30′): +4%
SPP, percentage change relative to vehicle ([2]; dog i.v. 0.63 mg/kg @ 30′): −1%
DPP, percentage change relative to vehicle ([2]; dog i.v. 1.25 mg/kg @ 5′): −7%
HR, percentage change relative to vehicle ([2]; dog i.v. 1.25 mg/kg @ 5′): −0%
LVdp/dtmax, percentage change relative to vehicle ([2]; dog i.v. 1.25 mg/kg @ 5′): −1%
MBP, percentage change relative to vehicle ([2]; dog i.v. 1.25 mg/kg @ 5′): +10%
PQ, percentage change relative to vehicle ([2]; dog i.v. 1.25 mg/kg @ 5′): +2%
QRS, percentage change relative to vehicle ([2]; dog i.v. 1.25 mg/kg @ 5′): +4%
QTcV, percentage change relative to vehicle ([2]; dog i.v. 1.25 mg/kg @ 5′): +2%
SPP, percentage change relative to vehicle ([2]; dog i.v. 1.25 mg/kg @ 5′): −1%
DPP, percentage change relative to vehicle ([2]; dog i.v. 1.25 mg/kg @ 30′): −12%
HR, percentage change relative to vehicle ([2]; dog i.v. 1.25 mg/kg @ 30′): −3%
LVdp/dtmax, percentage change relative to vehicle ([2]; dog i.v. 1.25 mg/kg @ 30′): −5%
MBP, percentage change relative to vehicle ([2]; dog i.v. 1.25 mg/kg @ 30′): +0%
PQ, percentage change relative to vehicle ([2]; dog i.v. 1.25 mg/kg @ 30′): +2%
QRS, percentage change relative to vehicle ([2]; dog i.v. 1.25 mg/kg @ 30′): +2%
QTcV, percentage change relative to vehicle ([2]; dog i.v. 1.25 mg/kg @ 30′): +1%
SPP, percentage change relative to vehicle ([2]; dog i.v. 1.25 mg/kg @ 30′): −9%
DPP, percentage change relative to vehicle ([2]; dog i.v. 2.5 mg/kg @ 5′): +1%
HR, percentage change relative to vehicle ([2]; dog i.v. 2.5 mg/kg @ 5′): −5%
LVdp/dtmax, percentage change relative to vehicle ([2]; dog i.v. 2.5 mg/kg @ 5′): −8%
PQ, percentage change relative to vehicle ([2]; dog i.v. 2.5 mg/kg @ 5′): +6%
QRS, percentage change relative to vehicle ([2]; dog i.v. 2.5 mg/kg @ 5′): +2%
QTcV, percentage change relative to vehicle ([2]; dog i.v. 2.5 mg/kg @ 5′): −3%
SPP, percentage change relative to vehicle ([2]; dog i.v. 2.5 mg/kg @ 5′): −1%
DPP, percentage change relative to vehicle ([2]; dog i.v. 2.5 mg/kg @ 30′): −24%
HR, percentage change relative to vehicle ([2]; dog i.v. 2.5 mg/kg @ 30′): −4%
LVdp/dtmax, percentage change relative to vehicle ([2]; dog i.v. 2.5 mg/kg @ 30′): +2%
MBP, percentage change relative to vehicle ([2]; dog i.v. 2.5 mg/kg @ 30′): +0%
PQ, percentage change relative to vehicle ([2]; dog i.v. 2.5 mg/kg @ 30′): +2%
QRS, percentage change relative to vehicle ([2]; dog i.v. 2.5 mg/kg @ 30′): +3%
QTcV, percentage change relative to vehicle ([2]; dog i.v. 2.5 mg/kg @ 30′): −1%
SPP, percentage change relative to vehicle ([2]; dog i.v. 2.5 mg/kg @ 30′): −15%
DPP, percentage change relative to vehicle ([2]; dog i.v. 5 mg/kg @ 5′): +17%
HR, percentage change relative to vehicle ([2]; dog i.v. 5 mg/kg @ 5′): −15%
LVdp/dtmax, percentage change relative to vehicle ([2]; dog i.v. 5 mg/kg @ 5′): −11%
PQ, percentage change relative to vehicle ([2]; dog i.v. 5 mg/kg @ 5′): +2%
QRS, percentage change relative to vehicle ([2]; dog i.v. 5 mg/kg @ 5′): +6%
QTcV, percentage change relative to vehicle ([2]; dog i.v. 5 mg/kg @ 5′): −3%
SPP, percentage change relative to vehicle ([2]; dog i.v. 5 mg/kg @ 5′): −10%
DPP, percentage change relative to vehicle ([2]; dog i.v. 5 mg/kg @ 30′): −5%
HR, percentage change relative to vehicle ([2]; dog i.v. 5 mg/kg @ 30′): −14%
LVdp/dtmax, percentage change relative to vehicle ([2]; dog i.v. 5 mg/kg @ 30′): +2%
MBP, percentage change relative to vehicle ([2]; dog i.v. 5 mg/kg @ 30′): +0%
QRS, percentage change relative to vehicle ([2]; dog i.v. 5 mg/kg @ 30′): +3%
QTcV, percentage change relative to vehicle ([2]; dog i.v. 5 mg/kg @ 30′): −2%
SPP, percentage change relative to vehicle ([2]; dog i.v. 5 mg/kg @ 30′): −7%
effect on heart rate, pulmonary artery pressure, LV end diastolic pressure, cardiac output, stroke volume, pressure rate product, PQ and QRS, lung function, body temperature, EEG ([2]; dog, 0.16 up to 5 mg/kg i.v., relative to vehicle): no relevant effect
Median plasma level ([2]; dog, dose 0.16 mg/kg (increasing doses, 30-min intervals)): 725 ng/mL
Median plasma level ([2]; dog, dose 0.32 mg/kg (increasing doses, 30-min intervals)): 1420 ng/mL
Median plasma level ([2]; dog, dose 0.64 mg/kg (increasing doses, 30-min intervals)): 2540 ng/mL
LV dp/dtmax/pd ([2]; dog, at 2.5 mg/kg i.v.): started to decrease
duration of QTc VDW and QTc VcT ([2]; dog, at 5 mg/kg i.v.): minor decrease
arterial blood pressure, vascular resistance (systemic and common carotid) and Tau ([2]; dog, from 1.25 mg/kg i.v. onwards): started to increase
